# Tests used:
# Format in all cases: biochemical
# [1] = biological target: T1, Complex I from Y. lipolytica (Yarrowia lipolytica, UniProt Q9B6E8+Q9UUT7+Q9UUU1+Q9UUU2); experiment: NADH:O2 oxidoreduction (FET) in CI proteoliposomes with AOX, spectrophotometric; conditions: 200 μM NADH
# T1 construct: gene nubm; complex purified from Y. lipolytica, whole multi-subunit enzyme, reconstituted in proteoliposomes with E. coli F1FO ATP synthase
# [2] = biological target: T2, complex I from mouse heart (Mus musculus) (Mus musculus, UniProt P03888+Q91WD5+Q91YT0+Q9DC70); experiment: as above; conditions: 200 μM NADH, membrane Q10, pH 7.5, 32 °C
# T2 construct: gene Ndufv1; native complex purified from mouse heart, whole multi-subunit enzyme, reconstituted in proteoliposomes with E. coli F1FO ATP synthase
# [3] = biological target: T2, complex I from mouse heart (Mus musculus); experiment: NAD+ reduction by RET in CI-F1FO proteoliposomes with GlpD, spectrophotometric; conditions: Δp-linked RET; 1 mM NAD+, ATP, rac-G3P, β-CD, pH 7.5, 32 °C
# [4] = biological target: T3, P. pastoris complex I (Komagataella pastoris, UniProt E1UWA8+E1UWB5+E1UWC2); experiment: as above; conditions: membrane concentration, Δp-linked, ATP, rac-G3P, β-CD, preheated 37 °C 15 min, assay pH 7.5, 32 °C
# T3 construct: gene nucm; native complex purified from P. pastoris, whole multi-subunit enzyme, reconstituted in proteoliposomes with E. coli F1FO ATP synthase; with NADH dehydrogenase [ubiquinone] flavoprotein 1, mitochondrial (51 kDa subunit)
# [5] = biological target: T3, P. pastoris complex I; experiment: NADH:O2 oxidoreduction (FET) in CI proteoliposomes with AOX, spectrophotometric; conditions: membrane Q10 concentration; 200 μM NADH, pH 7.5, 32 °C
# [6] = biological target: T4, complex I from B. taurus (bovine complex I) (Bos taurus, UniProt P03887+P17694+P25708+P42026); experiment: as above
# T4 construct: gene NDUFS2; AOX or GlpD added; with NADH dehydrogenase [ubiquinone] flavoprotein 2, mitochondrial; NADH-ubiquinone oxidoreductase 75 kDa subunit, mitochondrial; NADH dehydrogenase [ubiquinone] iron-sulfur protein 3, mitochondrial; NADH dehydrogenase [ubiquinone] iron-sulfur protein 8, mitochondrial; NADH-ubiquinone oxidoreductase chain 2; NADH-ubiquinone oxidoreductase chain 3; NADH-ubiquinone oxidoreductase chain 4; NADH-ubiquinone oxidoreductase chain 4L; NADH-ubiquinone oxidoreductase chain 5; NADH-ubiquinone oxidoreductase chain 6
compound,measurement,setting,value
NC(=O)C1=CN([C@@H]2O[C@H](COP(=O)(O)OP(=O)(O)OC[C@H]3O[C@@H](n4cnc5c(N)ncnc54)[C@H](O)[C@@H]3O)[C@@H](O)[C@H]2O)C=CC1 [NADH],"NADH:O2 oxidoreduction (FET) in CI proteoliposomes with AOX, spectrophotometric","[1]; membrane Q10, pH 7.5, 32 °C",Complex I from Y. lipolytica consistently showed remarkably high rates of NADH oxidation in proteoliposomes
same,"NADH:O2 oxidoreduction (FET) in CI proteoliposomes with AOX, spectrophotometric",[2],"Representative FET activities for proteoliposomes containing complex I from B. taurus (Bt), M. musculus (Mm)"
NC(=O)c1ccc[n+]([C@@H]2O[C@H](COP(=O)(O)OP(=O)(O)OC[C@H]3O[C@@H](n4cnc5c(N)ncnc54)[C@H](O)[C@@H]3O)[C@@H](O)[C@H]2O)c1 [NAD^+],"NAD+ reduction by RET in CI-F1FO proteoliposomes with GlpD, spectrophotometric",[3],"by Δp-linked NAD^+ reduction (Figure 6B), that mouse complex I is capable of RET"
COc1c(O)c(C)c(C/C=C(\C)CC/C=C(\C)CC/C=C(\C)CC/C=C(\C)CC/C=C(\C)CC/C=C(\C)CC/C=C(\C)CC/C=C(\C)CC/C=C(\C)CCC=C(C)C)c(O)c1OC [Q10H2],KM (Q10H2),[4],the KM for Q10H2 was again significantly higher than for Q10
COC1=C(OC)C(=O)C(C/C=C(\C)CC/C=C(\C)CC/C=C(\C)CC/C=C(\C)CC/C=C(\C)CC/C=C(\C)CC/C=C(\C)CC/C=C(\C)CC/C=C(\C)CCC=C(C)C)=C(C)C1=O [Q10],KM (Q10),[5],The KM values for both Q10 and Q10H2 were both lower for P. pastoris
same,"NADH:O2 oxidoreduction (FET) in CI proteoliposomes with AOX, spectrophotometric","[1]; membrane Q10 as acceptor, pH 7.5, 32 °C",Complex I from Y. lipolytica consistently showed remarkably high rates of NADH oxidation in proteoliposomes
C/C=C(\C)[C@H](O)[C@H](C)/C=C(C)/C=C/C/C(C)=C/Cc1nc(OC)c(OC)c(O)c1C [piericidin A],IC50,[6],7.8 ± 0.1 nM

# From publication PMC9026280, “Reverse Electron Transfer by Respiratory Complex I Catalyzed in a Modular Proteoliposome System” (Journal of the American Chemical Society, 2022)
